Experimental data: patent publication US20230158259A1, “PRODUCTS OF MANUFACTURE AND METHODS FOR TREATING, AMELIORATING OR PREVENTING MICROBIAL INFECTIONS” (TOPELIA AUST LIMITED, priority 2020, published 2023)

Columns and labels:
COVID-19 coronavirus = format: in vivo, human; settings: group of elderly cruise travelers
coronavirus COVID-19 = format: in vivo; settings: after 4 days of osteltamivir alone, started at time of contact

Compound | contraction of COVID-19 coronavirus (COVID-19 coronavirus) | test for the virus upon arrival home after the cruise (COVID-19 coronavirus) | blood result for COVID-19 virus (coronavirus COVID-19)
CCN(CC)CCCC(C)Nc1ccnc2cc(Cl)ccc12 (stereo not drawn) [chloroquine] | None contract COVID-19 coronavirus | negative | –
CCOC(=O)C1=C[C@@H](OC(CC)CC)[C@H](NC(C)=O)[C@@H](N)C1 [osteltamivir, oseltamivir] | – | – | positive
